Laboratory results: US20070232492A1, “Herbicidal Composition” (Ishihara Sangyo Kaisha, LTD., priority 2004, published 2007)

Assays:
Type in all cases: in vivo
[1] = test system: Japanese bulrush (Scirpus juncoides); assay: Growth inhibition of Japanese bulrush in paddy soil pots, application under submerged condition, visual rating and Colby expected value
Procedure, shortened: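 Scirpus juncoides was sown in paddy soil pots flooded to 3.5 cm and treated under submerged conditions at the 2–3 leaf stage with water-diluted formulations, alone or in combination. Growth inhibition was rated visually 10 or 19 days after application (0% untreated to 100% complete kill). Expected combination values come from Colby's formula.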

[2] = Growth inhibition of mixed broadleaf paddy weeds in paddy soil pots, application under submerged condition, visual rating and Colby expected value; settings: mixed broadleaf paddy weeds, soil, 528 h, read-out: Growth inhibition rate (%) Observed
Source text: (§1) When the herbicidal activity in a case where two active ingredients are combined, is larger than the simple sum of the respective herbicidal activities of the two active ingredients (the expected activity), it is called a synergistic effect. The activity expected by the combination of two active ingredients can be calculated as follows (Colby S. R., “Weed”, vol. 15, p. 20-22, 1967). E=p+q−(p×q÷100) where p: growth inhibition rate when treated with x (g/a) of herbicide X,
(§2) q: growth inhibition rate when treated with y (g/a) of herbicide Y,
(§3) E: growth inhibition rate expected when treated with x (g/a) of herbicide X and y (g/a) of herbicide Y.
(§4) Namely, when the actual growth inhibition rate (observed value) is larger than the growth inhibition rate by the above calculation (expected value), the activity by the combination can be regarded as showing a synergistic effect.
(§5) Growth inhibition rate (%)=0% (equivalent to the non-treated area) to 100% (complete kill)
(§6) Paddy field soil was put into a 1/1,700 are pot, and mixed seeds of false pimpernel (Lindernia pyxidaria), abunome (Dopatrium junceum), long stem waterwort (Elatine triandra SCHK.) and toothcup (Rotala india) were sown and left to stand under an irrigated condition with a water depth of 3.5 cm. When false pimpernel reached one leaf-pair stage, wettable powders of compound A2 and compound (B1.2) were, respectively, diluted with water and applied under submerged condition so that the active ingredients became the prescribed amounts, respectively. The state of growth was visually observed 21 days after application, and evaluation and calculation were carried out in the same manner as in the above Test Example 1.
(§7) Paddy field soil was put into a 1/1,700 are pot, and mixed seeds of false pimpernel (Lindernia pyxidaria), abunome (Dopatrium junceum), long stem waterwort (Elatine triandra SCHK.) and toothcup (Rotala india) were sown and left to stand under an irrigated condition with a water depth of 3.5 cm. When false pimpernel reached two leaf-pair stage, a wettable powder of compound A2 and an emulsifiable concentrate of compound (B8.1) were, respectively, diluted with water and applied under submerged condition so that the active ingredients became the prescribed amounts, respectively. The state of growth was visually observed 22 days after application, and evaluation and calculation were carried out in the same manner as in the above Test Example 1.

[3] = test system: rice (Oryza sativa var. Nihonbare); assay: Growth inhibition (phytotoxicity) of transplanted rice by compound A2 with or without compound D, application under submerged condition, visual rating 7 and 21 days after application; settings: Compound A2 60 g/ha, Compound D not applied, applied 5 days after implantation
Source text: as §5
Paddy field soil was put into a 1/500,000 hectare pot, harrowed and irrigated with a depth of 3 cm. On the next day, rice (Oryza sativa var. Nihonbare) at 2 leaf stage was implanted with a depth of 3 cm. A wettable powder of compound A2 and a wettable powder of compound D were, respectively, diluted with water and applied under submerged condition 5 days after implantation so that the active ingredients became the prescribed amounts, respectively. The state of growth of rice was visually observed 7 days and 21 days after application, and the growth inhibition rate (%) was evaluated in the same is manner as in the above Test Example 1.

[4] = test system: barnyardgrass (Echinochloa oryzicola vasing); assay: Growth inhibition of barnyardgrass in paddy soil pots, foliar application with a small sprayer, visual rating and Colby expected value; settings: 3.0 to 3.3 leaf stage, 21 days after application
Source text: as §1, §2, §3, §4, §5
Paddy field soil was put into a 1/10,000 are pot, and seeds of barnyardgrass (Echinochloa oryzicola vasing) were sown and left to stand under an irrigated condition with a water depth of 3.5 cm. When barnyardgrass reached 3.0 to 3.3 leaf stage, a wettable powder of compound A2 and a water-based suspension of compound (B11.1) were, respectively, diluted with water in an amount of 1,000 liter/ha, followed by foliar application with a small sprayer. The state of growth was visually observed 21 days after application, and evaluation and calculation were carried out in the same manner as in the above Test Example 1.

[5] = test system: false pimpernel (Lindernia pyxidaria), abunome (Dopatrium junceum), long stem waterwort (Elatine triandra SCHK.) and toothcup (Rotala india); assay: Growth inhibition of mixed broadleaf paddy weeds in paddy soil pots, application under submerged condition, visual rating and Colby expected value; settings: 0.22 g/a
Source text: as §1, §2, §3, §4, §5, §6, §7

[6] = Schoenoplectiella juncoides, soil, 696 h, read-out: Growth inhibition rate (%) Observed

CCCOCCN(C(=O)CCl)c1c(CC)cccc1CC [Compound (B3.1), pretilachlor]
inhibition at 50 g/ha ([1]; Schoenoplectiella juncoides, soil, 240 h, 0.5 g/a, 2.3 to 2.6 leaf stage, 10 days after application, read-out: Growth inhibition rate (%) Observed): 3%
inhibition at 100 g/ha ([1]; Schoenoplectiella juncoides, soil, 240 h, 1 g/a, 2.3 to 2.6 leaf stage, 10 days after application, read-out: Growth inhibition rate (%) Observed): 10%

CCS(=O)(=O)Oc1ccc2c(c1)C(C)(C)CO2 [Compound (B8.1), benfuresate]
inhibition at 600 g/ha [1, 6]: 90%
inhibition at 900 g/ha [1, 6]: 89%
inhibition at 1200 g/ha [1, 6]: 89%
inhibition at 1200 g/ha [2]: 70%

COCC(=O)OC(c1ncccc1S(=O)(=O)NC(=O)Nc1nc(OC)cc(OC)n1)C(C)F (stereo not shown) [Compound A2, flucetosulfuron]
Growth inhibition rate (%) (average) 7 days ([3]; 7 days after application): 23%
Growth inhibition rate (%) (average) 21 days ([3]; 21 days after application): 33%
Growth inhibition rate (%) Observed ([4]; 0.083 g/a): 23%
Growth inhibition rate (%) Observed ([4]; 0.11 g/a): 50%
Growth inhibition rate (%) Observed ([4]; 0.165 g/a): 60%
Growth inhibition rate (%) Observed ([1]; 0.025 g/a, 2 leaf stage, 19 days after application, Test Example 33): 43%
Growth inhibition rate (%) Observed ([1]; 0.025 g/a, 2.3 to 2.6 leaf stage, 10 days after application): 27%
Growth inhibition rate (%) Observed ([1]; 0.05 g/a, 2 leaf stage, 19 days after application, Test Example 33): 70%
Growth inhibition rate (%) Observed ([1]; 0.05 g/a, 2.3 to 2.6 leaf stage, 10 days after application): 40%
Growth inhibition rate (%) Observed ([1]; 0.075 g/a, 2.6 to 3.1 leaf stage, 22 days after application, Test Examples 50, 58): 94%
Growth inhibition rate (%) Observed ([1]; 0.1 g/a, 2.3 to 2.6 leaf stage, 10 days after application): 63%
Growth inhibition rate (%) Observed ([1]; 0.125 g/a, 2 leaf stage, 19 days after application, Test Example 34): 50%
Growth inhibition rate (%) Observed ([1]; 0.15 g/a, 2.6 to 3.1 leaf stage, 22 days after application, Test Examples 50, 58): 93%
Growth inhibition rate (%) Observed ([1]; 0.167 g/a, 2 leaf stage, 19 days after application, Test Example 34): 79%
Growth inhibition rate (%) Observed ([1]; 0.22 g/a, 2.2 to 2.8 leaf stage, 29 days after application, Test Example 44): 87%
Growth inhibition rate (%) Observed ([1]; 1.5 g/a, 2 leaf stage, 19 days after application, Test Example 34): 87%
Growth inhibition rate (%) Observed ([1]; 8.3 g/ha, 3 leaf stage, 19 days after application, Test Example 37): 70%
Growth inhibition rate (%) Observed ([5]; false pimpernel one leaf-pair stage, 21 days after application): 90%
Growth inhibition rate (%) Observed ([5]; false pimpernel two leaf-pair stage, 22 days after application): 65%
